Legend:
[1] = system: Human immunodeficiency virus 1; experiment: Antiviral activity was determined against HIV-1 (clone 118) in MT-4 cells infected with HIV-1 IIIB using an XTT assay; format: functional; details: Human immunodeficiency virus 1, MT4; read-out: ED50 (the source's name)
[2] = system: Human immunodeficiency virus 1; experiment: Antiviral activity was determined against HIV-1 (clone 90) in MT-4 cells infected with HIV-1 IIIB using an XTT assay; format: functional; details: Human immunodeficiency virus 1, MT4; read-out: ED50 (the source's name)
[3] = system: Human immunodeficiency virus 1; experiment: (§1) Antiviral activity was determined against wild type HIV-1 in MT-4 cells infected with HIV-1 IIIB using an XTT assay; format: functional; details: Human immunodeficiency virus 1, MT4; read-out: ED50 (the source's name)
[4] = system: Human immunodeficiency virus 1; experiment: as §1; format: functional; details: Human immunodeficiency virus 1, MT4; read-out: ED50 (the source's name); remark: listed apart in the source
[5] = biological target: Human immunodeficiency virus type 1 reverse transcriptase (Human immunodeficiency virus 1, UniProt Q72547); experiment: Inhibitory effect on wild type HIV- 1 reverse transcriptase using rCdG as template and dGTP as substrate.
[6] = biological target: Human immunodeficiency virus type 1 reverse transcriptase (Human immunodeficiency virus 1, UniProt Q72547, L100I); experiment: Inhibitory effect on recombinant HIV- 1 reverse transcriptase which has a mutation Leu 100 to Ile 100 (clone 118)
[7] = biological target: Human immunodeficiency virus type 1 reverse transcriptase (Human immunodeficiency virus 1, UniProt Q72547, Y181C); experiment: Inhibitory effect on recombinant HIV- 1 reverse transcriptase which has a mutation Tyr 181 to Cys 181 (clone 90)
MT4 [8] = experiment: Compound was tested for its inhibitory effect on HIV-1 in MT-4 cells; format: functional; details: Homo sapiens, read-out: ED50 (the source's name)
MT4 [9] = experiment: Antiviral activity was determined against wild type HIV- I in MT-4 cells infected with HIV-1 IIIB using an XTT assay which contains 15% human AB serum.; format: functional; details: read-out: ED50 (the source's name)

Row | Structure (SMILES) | EC50 [1] [nM] | EC50 [2] [nM] | EC50 [3] [nM] | EC50 [4] [nM] | IC50 [5] [nM] | IC50 [6] [nM] | IC50 [7] [nM] | EC50 (MT4 [8]) [nM] | EC50 (MT4 [9]) [nM]
1 | COc1ccc(OC)c(CCNC(=O)Nc2ccc(Cl)cn2)c1F | 17000 | 3000 | 11 | 90 | 3 | 140 | 140 |  | 
2 | S=C(NCCc1ccccc1)Nc1nccs1 |  |  |  |  |  |  |  | 1300 | 
3 | CCOc1ccc(OC)c(CCNC(=O)Nc2ccc(Cl)cn2)c1F | 14000 | > 27000 | 130 |  | 8 | 2500 | 500 |  | 
4 | CCOc1ccc(F)c(CCNC(=O)Nc2ccc(Br)cn2)c1Cl | 15000 | 8000 | 70 |  | 4 | 1700 | 240 |  | 
5 | O=C(NCCc1c(F)cccc1F)Nc1ccc(Cl)cn1 | 32000 | > 32000 | 30 | 850 |  |  |  |  | 
6 | CCOc1ccc(F)c([C@H]2C[C@H]2NC(=O)Nc2ccc(Cl)cn2)c1F | 750 | 270 | 8 | 30 | 1.5 | 80 | 15 |  | 
7 | CCOc1ccc(F)c([C@H]2C[C@H]2NC(=O)Nc2ccc(Cl)cn2)c1Cl | 100 |  | 16 | 60 | 8 | 80 | 50 |  | 
8 | O=C(Nc1ccc(Cl)cn1)N[C@@H]1C[C@@H]1c1c(F)cccc1F |  |  | 6 |  | 2 | 30 | 120 |  | 10
9 | CCOc1ccc(OC)c([C@H]2C[C@H]2NC(=O)Nc2ccc(Br)cn2)c1F |  |  | 25 | 400 | 7 | 240 | 90 |  | 
10 | CCOc1ccc(Cl)c([C@H]2C[C@H]2NC(=O)Nc2ccc(Cl)cn2)c1F | 100 | 100 | 8 | 100 | 1.5 | 50 | 20 |  | 
11 | CCOc1ccc(F)c([C@H]2C[C@H]2NC(=O)Nc2ccc(C#N)cn2)c1Cl | 270 | 530 | 10 | 20 | 4 | 80 | 70 |  | 
12 | COc1ccc(OC)c([C@H]2C[C@H]2NC(=O)Nc2ccc(Cl)cn2)c1F | 1600 | 2700 | 12 | 100 | 2 | 270 | 270 |  | 
13 | CN(C)c1ccc(F)c(CCNC(=O)Nc2ccc(Br)cn2)c1F | > 25000 | > 25000 | 500 |  | 25 | > 2500 | 1500 |  | 
14 | COc1ccc(C(C)=O)c(F)c1CCNC(=O)Nc1ccc(Cl)cn1 | > 27000 | > 27000 | 200 |  | 100 | 1100 | 10000 |  | 
15 | CCc1cc(NCc2nc3c(Cl)ccc(Cl)c3o2)c(O)nc1C [L-697661] | 850 | > 11000 | 65 |  |  | 1600 | 15000 |  | 
16 | Cc1ccnc2c1NC(=O)c1cccnc1N2C1CC1 [NEVIRAPINE] | 620 | 22000 | 150 |  |  |  |  |  | 
17 | S=C(NCCc1ccccn1)Nc1ccc(Br)cn1 [TROVIRDINE] | 800 | > 5000 | 20 | 5000 |  | 700 | 3200 |  | 
